Laboratory results taken from patent US6984649B1, “Pyridine derivatives” (Bayer Aktiengesellschaft, priority 2000, dated 2006).
Where a name gives a salt, the structure may show the parent alone.

Target: T1, human IKK-β (Homo sapiens, UniProt O14920)
T1 construct: A cDNA fragment encoding human IKK-β open reading frame was generated by PCR; His tag (from pcDNA3.1/His C); made in house; host or cells: Sf21 insect cells (baculovirus); substrate made in E. coli
T1 sequence (O14920 1-756): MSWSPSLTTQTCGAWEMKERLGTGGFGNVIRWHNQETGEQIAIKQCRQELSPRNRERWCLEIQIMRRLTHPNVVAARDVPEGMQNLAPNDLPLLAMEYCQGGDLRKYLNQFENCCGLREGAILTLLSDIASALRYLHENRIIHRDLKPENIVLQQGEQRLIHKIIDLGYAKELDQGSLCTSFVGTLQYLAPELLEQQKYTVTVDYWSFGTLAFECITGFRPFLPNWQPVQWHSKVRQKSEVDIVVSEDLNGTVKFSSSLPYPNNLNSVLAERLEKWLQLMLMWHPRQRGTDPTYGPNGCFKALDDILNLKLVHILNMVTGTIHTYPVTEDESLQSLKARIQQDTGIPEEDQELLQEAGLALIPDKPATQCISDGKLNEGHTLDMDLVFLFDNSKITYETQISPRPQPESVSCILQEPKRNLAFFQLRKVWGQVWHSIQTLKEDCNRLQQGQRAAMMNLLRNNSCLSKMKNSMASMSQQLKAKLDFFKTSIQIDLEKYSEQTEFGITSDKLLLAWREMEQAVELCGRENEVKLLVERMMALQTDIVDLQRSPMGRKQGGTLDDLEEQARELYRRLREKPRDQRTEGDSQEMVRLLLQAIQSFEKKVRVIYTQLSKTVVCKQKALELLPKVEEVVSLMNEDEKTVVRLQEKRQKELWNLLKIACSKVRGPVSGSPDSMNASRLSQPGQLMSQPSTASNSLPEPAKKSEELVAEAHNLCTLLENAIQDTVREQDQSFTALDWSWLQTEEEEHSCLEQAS
Assay: IKK-β kinase inhibitory assay
Type: biochemical
Details: compounds as yielded by solid phase synthesis, purity about 40 to 90%, read-out: In vitro activity grade (In vitro IC50)
Method in brief: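 His-tagged human IKK-β from baculovirus-infected Sf21 cells (0.6 μg/ml final) phosphorylates biotinylated GST-IκBα(1-54) (0.2 μM) in Tris-HCl pH 7.6 buffer with MgCl2. ATP with [γ-33P]ATP added, then 2 h at room temperature. Biotinylated substrate captured on streptavidin plates; bound radioactivity counted by scintillation.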

| Compound | IC50 [nM] |
| --- | --- |
| CC(=O)Nc1cccc(O)c1-c1cc(C2CCCNC2)c(C#N)c(N)n1 (stereo not drawn) [Example 1-12, N-{2-[6-amino-5-cyano-4-(3-piperidinyl)-2-pyridinyl]-3-hydroxyphenyl}acetamide hydrochloride] | 2000 to 10000 |
| O=C1Nc2nc(-c3ccccc3O)cc(C3CCCNC3)c2CO1 (stereo not drawn) [Example 18-2, 7-(2-hydroxyphenyl)-5-(3-piperidinyl)-1,4-dihydro-2H-pyrido[2,3-d][1,3]oxazin-2-one hydrochloride] | < 500 |
| Cc1c(C2CCCNC2)cc(-c2ccccc2O)nc1N (stereo not drawn) [Example 14-1, 2-[6-amino-5-methyl-4-(3-piperidinyl)-2-pyridinyl]phenol hydrochloride] | < 500 |
| Nc1n[nH]c2nc(-c3ccccc3O)cc(C3CCCNC3)c12 (stereo not drawn) [Example 5-1, 2-[3-amino-4-(3-piperidinyl)-1H-pyrazolo[3,4-b]pyridin-6-yl]phenol hydrochloride] | 2000 to 10000 |
| CNc1nc(-c2ccccc2O)cc(C2CCCNC2)c1C#N (stereo not drawn) [Example 4-3, 6-(2-hydroxyphenyl)-2-(methylamino)-4-(3-piperidinyl)nicotinonitrile hydrochloride] | 2000 to 10000 |
| CC(=O)Nc1nc(-c2ccccc2O)cc(C2CCCNC2)c1C#N (stereo not drawn) [Example 6-1, N-[3-cyano-6-(2-hydroxyphenyl)-4-(3-piperidinyl)-2-pyridinyl]acetamide hydrochloride] | < 500 |
| CC(=O)Nc1nc(-c2c(O)cccc2OCC2CC2)cc(C2CCNCC2)c1C#N [Example 6-2, N-[3-cyano-6-[2-(cyclopropylmethoxy)-6-hydroxyphenyl]-4-(4-piperidinyl)-2-pyridinyl]acetamide hydrochloride] | < 500 |
| Nc1nc(-c2c(O)cccc2OCC2CC2)cc(C2CCCNC2)c1C(=O)O (stereo not drawn) [Example 9-3, 2-amino-6-[2-(cyclopropylmethoxy)-6-hydroxyphenyl]-4-(3-piperidinyl)nicotinic acid hydrochloride] | < 500 |

Further lines, results first:

| IC50 [nM] | Compound |
| --- | --- |
| < 500 | Nc1cc2c(C3CCCNC3)cc(-c3c(O)cccc3OCC3CC3)nc2[nH]c1=O (stereo not drawn) [Example 29-01, 3-amino-7-[2-(cyclopropylmethoxy)-6-hydroxyphenyl]-5-(3-piperidinyl)-1,8-naphthyridin-2(1H)-one hydrochloride] |
| 500 to 2000 | N#Cc1ccc(-c2ccccc2O)nc1N [Example 33-1, 2-amino-6-(2-hydroxyphenyl)nicotinonitrile] |
| < 500 | Nc1nc(-c2c(O)cccc2OCC2CC2)cc(C2CCNCC2)c1CON1C(=O)CCC1=O [Example 21-4, 1-{[2-amino-6-[2-(cyclopropylmethoxy)-6-hydroxyphenyl]-4-(4-piperidinyl)-3-pyridinyl]methoxy}-2,5-pyrrolidinedione hydrochloride] |
| < 500 | O=C1NCc2c(C3CCCNC3)cc(-c3ccccc3O)nc2N1 (stereo not drawn) [Example 22-1, 7-(2-hydroxyphenyl)-5-(3-piperidinyl)-3,4-dihydropyrido[2,3-d]pyrimidin-2(1H)-one hydrochloride] |
| < 500 | O=S1(=O)NCc2c(C3CCCNC3)cc(-c3ccccc3O)nc2N1 (stereo not drawn) [Example 22-5, 2-[2,2-dioxido-5-(3-piperidinyl)-3,4-dihydro-1H-pyrido[2,3-c][1,2,6]thiadiazin-7-yl]phenol hydrochloride] |
| 500 to 2000 | CC1OC(=O)Nc2nc(-c3ccccc3O)cc(C3CCCNC3)c21 (stereo not drawn) [Example 18-3, hydrochloride] |
| < 500 | CS(=O)(=O)NC(=O)c1cc2c(C3CCCNC3)cc(-c3c(O)cccc3OCC3CC3)nc2[nH]c1=O (stereo not drawn) [Example 31-2, N-{[7-[2-(cyclopropylmethoxy)-6-hydroxyphenyl]-2-oxo-5-(3-piperidinyl)-1,2-dihydro-1,8-naphthyridin-3-yl]carbonyl}methanesulfonamide hydrochloride] |
